{"source": "ChEMBL document CHEMBL3885881", "about": "“DrugMatrix”", "species": "Rattus norvegicus", "assay": "DrugMatrix - Regimen: Daily Repeat", "type": "toxicity, organism-based, Sprague-Dawley", "parameters": "regimen Daily Repeat, gender Male, age 6-8 weeks", "settings": "in vivo, iv, vehicle 100 % SALINE; for ABSOLUTE BASOPHIL / ABSOLUTE EOSINOPHIL / ABSOLUTE LYMPHOCYTE / ABSOLUTE MONOCYTE / ABSOLUTE SEGMENTED NEUTROPHIL / BASOPHIL / EOSINOPHIL / ERYTHROCYTE COUNT / HEMATOCRIT / HEMOGLOBIN / LEUKOCYTE COUNT / LYMPHOCYTE / MEAN CORPUSCULAR HEMOGLOBIN / MEAN CORPUSCULAR HEMOGLOBIN CONCENTRATION / MEAN CORPUSCULAR VOLUME / MONOCYTE / NEUTROPHIL / NUCLEATED RED BLOOD CELLS: tissue Blood; for ALANINE AMINOTRANSFERASE / ALKALINE PHOSPHATASE / BLOOD UREA NITROGEN / CARBON DIOXIDE / CHOLESTEROL / CREATINE PHOSPHOKINASE / CREATININE / GLUCOSE / LACTATE DEHYDROGENASE / LIPASE / SODIUM / TOTAL BILIRUBIN / TOTAL PROTEIN / URIC ACID / ASPARTATE AMINOTRANSFERASE: tissue Plasma", "key": {"[1]": {"settings": "0 mg/kg, 72 h, dose level Control, time 3 day"}, "[2]": {"settings": "0 mg/kg, 120 h, dose level Control, time 5 day"}, "[3]": {"settings": "3 mg/kg, 72 h, dose level High, time 3 day"}}, "data": [{"compound": "COc1cccc2c1C(=O)c1c(O)c3c(c(O)c1C2=O)C[C@@](O)(C(=O)CO)C[C@@H]3O[C@H]1C[C@H](N)[C@H](O)[C@H](C)O1", "note": "[DOXORUBICIN]", "values": [{"measurement": "ABSOLUTE BASOPHIL", "setting": "[1]", "value": 0, "unit": "CELLS/uL"}, {"measurement": "ABSOLUTE EOSINOPHIL", "setting": "[1]", "value": 0, "unit": "CELLS/uL"}, {"measurement": "ABSOLUTE LYMPHOCYTE", "setting": "[1]", "value": 7855.5, "unit": "CELLS/uL"}, {"measurement": "ABSOLUTE MONOCYTE", "setting": "[1]", "value": 36.17, "unit": "CELLS/uL"}, {"measurement": "ABSOLUTE SEGMENTED NEUTROPHIL", "setting": "[1]", "value": 575, "unit": "CELLS/uL"}, {"measurement": "BASOPHIL", "setting": "[1]", "value": 0, "unit": "%"}, {"measurement": "EOSINOPHIL", "setting": "[1]", "value": 0, "unit": "%"}, {"measurement": "ERYTHROCYTE COUNT", "setting": "[1]", "value": 5.14, "unit": "x10E6/uL"}, {"measurement": "HEMATOCRIT", "setting": "[1]", "value": 33.22, "unit": "%"}, {"measurement": "HEMOGLOBIN", "setting": "[1]", "value": 12.97, "unit": "G/DL"}, {"measurement": "LEUKOCYTE COUNT", "setting": "[1]", "value": 8.47, "unit": "x10E3/uL"}, {"measurement": "LYMPHOCYTE", "setting": "[1]", "value": 93.17, "unit": "%"}, {"measurement": "MEAN CORPUSCULAR HEMOGLOBIN", "setting": "[1]", "value": 25.28, "unit": "pg"}, {"measurement": "MEAN CORPUSCULAR HEMOGLOBIN CONCENTRATION", "setting": "[1]", "value": 39.05, "unit": "G/DL"}, {"measurement": "MEAN CORPUSCULAR VOLUME", "setting": "[1]", "value": 64.75, "unit": "fL"}, {"measurement": "MONOCYTE", "setting": "[1]", "value": 0.33, "unit": "%"}, {"measurement": "NEUTROPHIL", "setting": "[1]", "value": 6.5, "unit": "%"}, {"measurement": "NUCLEATED RED BLOOD CELLS", "setting": "[1]", "value": "0 /100WBC"}, {"measurement": "ALANINE AMINOTRANSFERASE", "setting": "[1]", "value": 61.67, "unit": "u/L"}, {"measurement": "ALKALINE PHOSPHATASE", "setting": "[1]", "value": 292.33, "unit": "u/L"}, {"measurement": "BLOOD UREA NITROGEN", "setting": "[1]", "value": 11, "unit": "mg/dL"}, {"measurement": "CARBON DIOXIDE", "setting": "[1]", "value": 34.67, "unit": "mmol/L"}, {"measurement": "CHOLESTEROL", "setting": "[1]", "value": 71.17, "unit": "mg/dL"}, {"measurement": "CREATINE PHOSPHOKINASE", "setting": "[1]", "value": 554.5, "unit": "u/L"}, {"measurement": "CREATININE", "setting": "[1]", "value": 0.31, "unit": "mg/dL"}, {"measurement": "GLUCOSE", "setting": "[1]", "value": 151, "unit": "mg/dL"}, {"measurement": "LACTATE DEHYDROGENASE", "setting": "[1]", "value": 88.67, "unit": "u/L"}, {"measurement": "LIPASE", "setting": "[1]", "value": 18.83, "unit": "u/L"}, {"measurement": "SODIUM", "setting": "[1]", "value": 144.57, "unit": "MEQ/L"}, {"measurement": "TOTAL BILIRUBIN", "setting": "[1]", "value": 0.17, "unit": "mg/dL"}, {"measurement": "TOTAL PROTEIN", "setting": "[1]", "value": 5.8, "unit": "G/DL"}, {"measurement": "URIC ACID", "setting": "[1]", "value": 0.52, "unit": "mg/dL"}, {"measurement": "ABSOLUTE BASOPHIL", "setting": "[2]", "value": 0, "unit": "CELLS/uL"}, {"measurement": "ABSOLUTE EOSINOPHIL", "setting": "[2]", "value": 53.33, "unit": "CELLS/uL"}, {"measurement": "ABSOLUTE LYMPHOCYTE", "setting": "[2]", "value": 7739.83, "unit": "CELLS/uL"}, {"measurement": "ABSOLUTE MONOCYTE", "setting": "[2]", "value": 74.83, "unit": "CELLS/uL"}, {"measurement": "ABSOLUTE SEGMENTED NEUTROPHIL", "setting": "[2]", "value": 832, "unit": "CELLS/uL"}, {"measurement": "BASOPHIL", "setting": "[2]", "value": 0, "unit": "%"}, {"measurement": "EOSINOPHIL", "setting": "[2]", "value": 0.67, "unit": "%"}, {"measurement": "ERYTHROCYTE COUNT", "setting": "[2]", "value": 5.55, "unit": "x10E6/uL"}, {"measurement": "HEMATOCRIT", "setting": "[2]", "value": 34.77, "unit": "%"}, {"measurement": "LEUKOCYTE COUNT", "setting": "[2]", "value": 8.7, "unit": "x10E3/uL"}, {"measurement": "LYMPHOCYTE", "setting": "[2]", "value": 89.17, "unit": "%"}, {"measurement": "MEAN CORPUSCULAR HEMOGLOBIN", "setting": "[2]", "value": 24.6, "unit": "pg"}, {"measurement": "MEAN CORPUSCULAR HEMOGLOBIN CONCENTRATION", "setting": "[2]", "value": 39.2, "unit": "G/DL"}, {"measurement": "MEAN CORPUSCULAR VOLUME", "setting": "[2]", "value": 62.78, "unit": "fL"}, {"measurement": "MONOCYTE", "setting": "[2]", "value": 0.67, "unit": "%"}, {"measurement": "NEUTROPHIL", "setting": "[2]", "value": 9.5, "unit": "%"}, {"measurement": "NUCLEATED RED BLOOD CELLS", "setting": "[2]", "value": "0 /100WBC"}, {"measurement": "ALANINE AMINOTRANSFERASE", "setting": "[2]", "value": 50, "unit": "u/L"}, {"measurement": "ALKALINE PHOSPHATASE", "setting": "[2]", "value": 271.17, "unit": "u/L"}, {"measurement": "ASPARTATE AMINOTRANSFERASE", "setting": "[2]", "value": 84.17, "unit": "u/L"}, {"measurement": "BLOOD UREA NITROGEN", "setting": "[2]", "value": 13.33, "unit": "mg/dL"}, {"measurement": "CARBON DIOXIDE", "setting": "[2]", "value": 27, "unit": "mmol/L"}, {"measurement": "CHOLESTEROL", "setting": "[2]", "value": 68, "unit": "mg/dL"}, {"measurement": "CREATINE PHOSPHOKINASE", "setting": "[2]", "value": 313.67, "unit": "u/L"}, {"measurement": "CREATININE", "setting": "[2]", "value": 0.21, "unit": "mg/dL"}, {"measurement": "GLUCOSE", "setting": "[2]", "value": 163, "unit": "mg/dL"}, {"measurement": "LACTATE DEHYDROGENASE", "setting": "[2]", "value": 75.67, "unit": "u/L"}, {"measurement": "LIPASE", "setting": "[2]", "value": 11.5, "unit": "u/L"}, {"measurement": "SODIUM", "setting": "[2]", "value": 143.1, "unit": "MEQ/L"}, {"measurement": "TOTAL BILIRUBIN", "setting": "[2]", "value": 0.2, "unit": "mg/dL"}, {"measurement": "TOTAL PROTEIN", "setting": "[2]", "value": 6.08, "unit": "G/DL"}, {"measurement": "URIC ACID", "setting": "[2]", "value": 0.68, "unit": "mg/dL"}, {"measurement": "ABSOLUTE BASOPHIL", "setting": "[3]", "value": 0, "unit": "CELLS/uL"}, {"measurement": "ABSOLUTE EOSINOPHIL", "setting": "[3]", "value": 0, "unit": "CELLS/uL"}, {"measurement": "ABSOLUTE LYMPHOCYTE", "setting": "[3]", "value": 2936, "unit": "CELLS/uL"}, {"measurement": "ABSOLUTE MONOCYTE", "setting": "[3]", "value": 0, "unit": "CELLS/uL"}, {"measurement": "ABSOLUTE SEGMENTED NEUTROPHIL", "setting": "[3]", "value": 230.67, "unit": "CELLS/uL"}, {"measurement": "BASOPHIL", "setting": "[3]", "value": 0, "unit": "%"}, {"measurement": "EOSINOPHIL", "setting": "[3]", "value": 0, "unit": "%"}, {"measurement": "ERYTHROCYTE COUNT", "setting": "[3]", "value": 5.1, "unit": "x10E6/uL"}, {"measurement": "HEMATOCRIT", "setting": "[3]", "value": 32.43, "unit": "%"}, {"measurement": "HEMOGLOBIN", "setting": "[3]", "value": 12.87, "unit": "G/DL"}, {"measurement": "LEUKOCYTE COUNT", "setting": "[3]", "value": 3.17, "unit": "x10E3/uL"}, {"measurement": "LYMPHOCYTE", "setting": "[3]", "value": 92.67, "unit": "%"}, {"measurement": "MEAN CORPUSCULAR HEMOGLOBIN", "setting": "[3]", "value": 25.23, "unit": "pg"}, {"measurement": "MEAN CORPUSCULAR HEMOGLOBIN CONCENTRATION", "setting": "[3]", "value": 39.67, "unit": "G/DL"}, {"measurement": "MEAN CORPUSCULAR VOLUME", "setting": "[3]", "value": 63.63, "unit": "fL"}, {"measurement": "MONOCYTE", "setting": "[3]", "value": 0, "unit": "%"}, {"measurement": "NEUTROPHIL", "setting": "[3]", "value": 7.33, "unit": "%"}, {"measurement": "NUCLEATED RED BLOOD CELLS", "setting": "[3]", "value": "0 /100WBC"}, {"measurement": "ALANINE AMINOTRANSFERASE", "setting": "[3]", "value": 53.33, "unit": "u/L"}, {"measurement": "ALKALINE PHOSPHATASE", "setting": "[3]", "value": 266, "unit": "u/L"}, {"measurement": "ASPARTATE AMINOTRANSFERASE", "setting": "[3]", "value": 81.33, "unit": "u/L"}, {"measurement": "BLOOD UREA NITROGEN", "setting": "[3]", "value": 16.67, "unit": "mg/dL"}, {"measurement": "CARBON DIOXIDE", "setting": "[3]", "value": 31.33, "unit": "mmol/L"}, {"measurement": "CHOLESTEROL", "setting": "[3]", "value": 79.33, "unit": "mg/dL"}, {"measurement": "CREATINE PHOSPHOKINASE", "setting": "[3]", "value": 216.67, "unit": "u/L"}, {"measurement": "CREATININE", "setting": "[3]", "value": 0.18, "unit": "mg/dL"}, {"measurement": "GLUCOSE", "setting": "[3]", "value": 145, "unit": "mg/dL"}, {"measurement": "LACTATE DEHYDROGENASE", "setting": "[3]", "value": 77.67, "unit": "u/L"}, {"measurement": "LIPASE", "setting": "[3]", "value": 24, "unit": "u/L"}, {"measurement": "SODIUM", "setting": "[3]", "value": 143.8, "unit": "MEQ/L"}, {"measurement": "TOTAL BILIRUBIN", "setting": "[3]", "value": 0.1, "unit": "mg/dL"}, {"measurement": "TOTAL PROTEIN", "setting": "[3]", "value": 5.87, "unit": "G/DL"}, {"measurement": "URIC ACID", "setting": "[3]", "value": 0.5, "unit": "mg/dL"}]}]}
